Experimental data: patent publication US20260078120A1, “SUBSTITUTED PYRIDOPYRIMIDINONES” (MIRATI THERAPEUTICS, INC., priority 2022, published 2026)

Key:
[1] = tested on: SKBR3 (PI3Kα wild type) cells; experiment: CellTiter-Glo 2.0 luminescent cell viability assay, 72 hours, SKBR3 cells; format: cell-based; conditions: Homo sapiens, SK-BR-3, 72 h, SKBR3 (PI3Kα wild type) cells, CellTiter-Glo, approximately 72 hours; read-out: SKBR3 (WT) Viability IC50
How it was run: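 Viability measured via CTG luminescence following roughly 72 hours of compound exposure at 37° C. Dosing used a 10 um starting concentration diluted 1:4 over 10 points; percent-of-vehicle data fitted with a variable-slope four-parameter model for IC50.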

[2] = tested on: T47D (PI3Kα H1047R mutant) cells; experiment: CellTiter-Glo 2.0 luminescent cell viability assay, 72 hours, T47D cells; format: cell-based; conditions: Homo sapiens, T47D, 72 h, T47D (PI3Kα H1047R mutant) cells, CellTiter-Glo, approximately 72 hours; read-out: T47D (H1047R mutant) Viability IC50
How it was run: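 Viability was measured by CellTiter-Glo 2.0 luminescence after approximately 72 h of compound exposure at 37° C. Plating was 1000 cells per well the day before dosing, with ten 1:4 dilutions from a 10 µM top concentration. Values as percent of vehicle were fitted by variable-slope log(inhibitor) regression to give IC50.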

SMILES | IC50 [1] | IC50 [2]
C#Cc1ccc(N[C@H](C)c2cc(C)cn3c(=O)cc(N4CCCCC4)nc23)c(C(=O)O)c1 [Example 11-232, (R)-5-ethynyl-2-((1-(7-methyl-4-oxo-2-(piperidin-1-yl)-4H-pyrido[1,2-a]pyrimidin-9-yl)ethyl)amino)benzoic acid] | > 10 µM | 3.28 µM
Cc1cc([C@@H](C)Nc2ccccc2C(=O)O)c2nc(N3CCC4(CCC(=O)N4)C3)c(C#N)c(=O)n2c1 (stereo partly drawn) [Example 11-289, 2-(((1R)-1-(3-cyano-7-methyl-4-oxo-2-(2-oxo-1,7-diazaspiro[4.4]nonan-7-yl)-4H-pyrido[1,2-a]pyrimidin-9-yl)ethyl)amino)benzoic acid] | > 10 µM | 1.87 µM
Cc1cc([C@@H](C)Nc2ccccc2C(=O)O)c2nc(C3=CCN(C)CC3)c(C)c(=O)n2c1 [Example 11-148, (R)-2-((1-(3,7-dimethyl-2-(1-methyl-1,2,3,6-tetrahydropyridin-4-yl)-4-oxo-4H-pyrido[1,2-a]pyrimidin-9-yl)ethyl)amino)benzoic acid] | > 10 µM | 1.19 µM
Cc1cc([C@@H](C)Nc2ccccc2C(=O)O)c2nc(N3CCN(C4CCOCC4)CC3)c(C)c(=O)n2c1 [Example 11-187, (R)-2-((1-(3,7-dimethyl-4-oxo-2-(4-(tetrahydro-2H-pyran-4-yl)piperazin-1-yl)-4H-pyrido[1,2-a]pyrimidin-9-yl)ethyl)amino)benzoic acid] | > 10 µM | 0.406 µM
Cc1cc([C@@H](C)Nc2ccnnc2)c2nc(N3CCC(F)(F)CC3)c(C#N)c(=O)n2c1 [Example 11-145, (R)-2-(4,4-difluoropiperidin-1-yl)-7-methyl-4-oxo-9-(1-(pyridazin-4-ylamino)ethyl)-4H-pyrido[1,2-a]pyrimidine-3-carbonitrile] | > 10 µM | > 10 µM
Cc1cc([C@@H](C)Nc2ccccc2C(=O)O)c2nc(N3CC4CC5CC4C3C5O)c(C)c(=O)n2c1 (stereo partly drawn) [Example 11-22, 2-(((1R)-1-(2-(6-hydroxyhexahydro-3,5-methanocyclopenta[b]pyrrol-1(2H)-yl)-3,7-dimethyl-4-oxo-4H-pyrido[1,2-a]pyrimidin-9-yl)ethyl)amino)benzoic acid] | > 10 µM | 0.192 µM
Cc1cc([C@@H](C)Nc2ccccc2C(=O)O)c2nc(NC[C@@H]3CC3(F)F)c(C#N)c(=O)n2c1 [Example 11-157, 2-(((R)-1-(3-cyano-2-((((S)-2,2-difluorocyclopropyl)methyl)amino)-7-methyl-4-oxo-4H-pyrido[1,2-a]pyrimidin-9-yl)ethyl)amino)benzoic acid] | > 10 µM | 0.221 µM
CNS(=O)(=O)c1ccc(N2CCN(c3nc4c([C@@H](C)Nc5ccccc5C(=O)O)cc(C)cn4c(=O)c3C)CC2)cc1 [Example 10-129, (R)-2-((1-(3,7-dimethyl-2-(4-(4-(N-methylsulfamoyl)phenyl)piperazin-1-yl)-4-oxo-4H-pyrido[1,2-a]pyrimidin-9-yl)ethyl)amino)benzoic acid] | > 10 µM | 0.0467 µM
Cc1cc([C@@H](C)Nc2ccccc2C(=O)O)c2nc(N3CC4(C3)CC4(F)F)c(C#N)c(=O)n2c1 [Example 11-102, (R)-2-((1-(3-cyano-2-(1,1-difluoro-5-azaspiro[2.3]hexan-5-yl)-7-methyl-4-oxo-4H-pyrido[1,2-a]pyrimidin-9-yl)ethyl)amino)benzoic acid] | > 10 µM | 0.13 µM
Cc1cc([C@@H](C)Nc2ccccc2C(=O)O)c2nc(N3CC4(CN(c5ccc(C#N)cc5)C4)C3)c(C)c(=O)n2c1 [Example 11-191, (R)-2-((1-(2-(6-(4-cyanophenyl)-2,6-diazaspiro[3.3]heptan-2-yl)-3,7-dimethyl-4-oxo-4H-pyrido[1,2-a]pyrimidin-9-yl)ethyl)amino)benzoic acid] | > 10 µM | 1.06 µM
Cc1cc([C@@H](C)Nc2ccccc2C(=O)O)c2nc(-c3cccc(C(C)(C)C#N)c3)cc(=O)n2c1 [Example 11-239, (R)-2-((1-(2-(3-(2-cyanopropan-2-yl)phenyl)-7-methyl-4-oxo-4H-pyrido[1,2-a]pyrimidin-9-yl)ethyl)amino)benzoic acid] | > 10 µM | 2.97 µM
Cc1cc([C@@H](C)Nc2ccccc2C(=O)O)c2nc(N3C4CCC3c3ccccc34)c(C)c(=O)n2c1 [Example 11-215, 2-(((1R)-1-(3,7-dimethyl-4-oxo-2-(1,2,3,4-tetrahydro-1,4-epiminonaphthalen-9-yl)-4H-pyrido[1,2-a]pyrimidin-9-yl)ethyl)amino)benzoic acid] | > 10 µM | 0.303 µM
Cc1cc([C@@H](C)Nc2ccccc2C(=O)O)c2nc(N3C4CNCC3C4)c(C#N)c(=O)n2c1 [Example 11-178, 2-(((1R)-1-(2-(3,6-diazabicyclo[3.1.1]heptan-6-yl)-3-cyano-7-methyl-4-oxo-4H-pyrido[1,2-a]pyrimidin-9-yl)ethyl)amino)benzoic acid] | > 10 µM | ≥ 10 µM
Cc1cc([C@@H](C)Nc2ccccc2C(=O)O)c2nc(N3CCC(c4ccccn4)C3)c(C)c(=O)n2c1 (stereo partly drawn) [Example 10-142, 2-(((1R)-1-(3,7-dimethyl-4-oxo-2-(3-(pyridin-2-yl)pyrrolidin-1-yl)-4H-pyrido[1,2-a]pyrimidin-9-yl)ethyl)amino)benzoic acid] | > 10 µM | 0.0801 µM
Cc1cc([C@@H](C)Nc2ccccc2C(=O)O)c2nc(N3CCCCCC3)c(C#N)c(=O)n2c1 [Example 11-319, (R)-2-((1-(2-(azepan-1-yl)-3-cyano-7-methyl-4-oxo-4H-pyrido[1,2-a]pyrimidin-9-yl)ethyl)amino)benzoic acid] | > 10 µM | 0.162 µM

Now from value to molecule:

IC50 [1] | IC50 [2] | SMILES
> 10 µM | 0.285 µM | COC1CN(c2nc3c([C@@H](C)Nc4ccccc4C(=O)O)cc(C)cn3c(=O)c2C#N)C1 [Example 11-111, (R)-2-((1-(3-cyano-2-(3-methoxyazetidin-1-yl)-7-methyl-4-oxo-4H-pyrido[1,2-a]pyrimidin-9-yl)ethyl)amino)benzoic acid]
> 10 µM | 0.796 µM | Cc1ccc2c(c1)CN(c1nc3c([C@@H](C)Nc4ccccc4C(=O)O)cc(C)cn3c(=O)c1C)C2 [Example 11-17, (R)-2-((1-(3,7-dimethyl-2-(5-methylisoindolin-2-yl)-4-oxo-4H-pyrido[1,2-a]pyrimidin-9-yl)ethyl)amino)benzoic acid]
> 10 µM | 0.386 µM | Cc1cc(C(C)Nc2ccccc2C(=O)O)c2nc(N3CCN(c4ccccc4)CC3)cc(=O)n2c1 (stereo not shown) [Example 11-335, 2-((1-(7-methyl-4-oxo-2-(4-phenylpiperazin-1-yl)-4H-pyrido[1,2-a]pyrimidin-9-yl)ethyl)amino)benzoic acid]
> 10 µM | 0.32 µM | Cc1cc([C@@H](C)Nc2ccccc2C(=O)O)c2nc(N3CCC(F)(F)[C@@H]3C)c(C)c(=O)n2c1 [Example 11-122, 2-(((R)-1-(2-((S)-3,3-difluoro-2-methylpyrrolidin-1-yl)-3,7-dimethyl-4-oxo-4H-pyrido[1,2-a]pyrimidin-9-yl)ethyl)amino)benzoic acid]
7.1 µM | 0.118 µM | Cc1cc([C@@H](C)Nc2ccccc2C(=O)O)c2nc(N3CCN(c4ccc(C#N)cc4)C(C)C3)c(C#N)c(=O)n2c1 (stereo partly drawn) [Example 11-271, 2-(((1R)-1-(3-cyano-2-(4-(4-cyanophenyl)-3-methylpiperazin-1-yl)-7-methyl-4-oxo-4H-pyrido[1,2-a]pyrimidin-9-yl)ethyl)amino)benzoic acid]
> 10 µM | 9.09 µM | CC(Nc1ccccc1C(=O)O)c1cc(C(F)(F)F)cn2c(=O)cc(N3CCCCC3)nc12 (stereo not shown) [Example 11-416, 2-((1-(4-oxo-2-(piperidin-1-yl)-7-(trifluoromethyl)-4H-pyrido[1,2-a]pyrimidin-9-yl)ethyl)amino)benzoic acid]
> 10 µM | 0.241 µM | Cc1cc([C@@H](C)Nc2ccccc2C(=O)O)c2nc(N3CCN(c4cccc(C(F)(F)F)c4)CC3)c(C)c(=O)n2c1 [Example 11-439, (R)-2-((1-(3,7-dimethyl-4-oxo-2-(4-(3-(trifluoromethyl)phenyl)piperazin-1-yl)-4H-pyrido[1,2-a]pyrimidin-9-yl)ethyl)amino)benzoic acid]
> 10 µM | 1.05 µM | Cc1cc([C@@H](C)Nc2ccccc2C(=O)O)c2nc(N[C@@H](C3CC3)C(F)(F)F)c(C#N)c(=O)n2c1 [Example 11-161, 2-(((R)-1-(3-cyano-2-(((S)-1-cyclopropyl-2,2,2-trifluoroethyl)amino)-7-methyl-4-oxo-4H-pyrido[1,2-a]pyrimidin-9-yl)ethyl)amino)benzoic acid]
> 10 µM | 4.67 µM | Cc1cc([C@@H](C)Nc2ccccc2C(=O)O)c2nc(N3CCn4cncc4C3)c(C)c(=O)n2c1 [Example 11-430, (R)-2-((1-(2-(5,6-dihydroimidazo[1,5-a]pyrazin-7(8H)-yl)-3,7-dimethyl-4-oxo-4H-pyrido[1,2-a]pyrimidin-9-yl)ethyl)amino)benzoic acid]
> 10 µM | 0.156 µM | Cc1cc([C@@H](C)Nc2ccccc2C(=O)O)c2nc(N3CCN(c4cccc(C#N)c4)C[C@H]3C)c(C)c(=O)n2c1 [Example 11-87, 2-(((R)-1-(2-((R)-4-(3-cyanophenyl)-2-methylpiperazin-1-yl)-3,7-dimethyl-4-oxo-4H-pyrido[1,2-a]pyrimidin-9-yl)ethyl)amino)benzoic acid]
3.96 µM | 2.58 µM | C[C@@H](Nc1ccccc1C(=O)O)c1cc(C2CC2)cn2c(=O)c(C#N)c(N3Cc4ccccc4C3)nc12 [Example 11-326, (R)-2-((1-(3-cyano-7-cyclopropyl-2-(isoindolin-2-yl)-4-oxo-4H-pyrido[1,2-a]pyrimidin-9-yl)ethyl)amino)benzoic acid]
